From a melting point compilation (Tetko et al.)

SMILES | melting point [°C]
CCS(=O)(=O)c1ccc(S(=O)(=O)Cl)cc1 | 104 to 106
Cc1cccc(-c2nnc(N)[nH]2)n1 | 206 to 208
O=C(CCl)NCC(=O)c1ccccc1 | 124 to 126
CCOC(=O)c1sc(-c2cccc([N+](=O)[O-])c2)cc1N | 166 to 168
C=CCc1cc(C(=O)OC)cc(OC)c1O | 76 to 78
O=C(c1ccsc1)N1CCNCC1 | 235 to 237
O=C(O)c1cc(S(=O)(=O)N2CCC2)ccc1Cl | 172 to 174
Nc1ccc(-c2nc3ccccc3[nH]2)cc1 | 218 to 222
O=C1CCSc2c(F)ccc(F)c21 | 111 to 113
Cc1nc(-c2ccc(Cl)cc2)sc1C(C)N (stereo not given) | 42 to 44
OC(c1c(Cl)cccc1Cl)C1CCOCC1 (stereo not given) | 106 to 108
Cc1cc(C(=O)N2CCCCC2C)ccc1N (stereo not given) | 123 to 125
CNS(=O)(=O)c1c[nH]c(=O)[nH]c1=O | 279 to 281
CC(C)(C)OC(=O)N1CC2CNCC2C1 (stereo not given) | 29 to 31
NC(=O)c1cc(N)ccc1Cl | 153 to 155
Clc1nc(-c2cccnc2)nc2ccccc12 | 180 to 182
C=CCn1cc(C(=O)O)c2ccccc21 | 159 to 161
Cn1ccnc1C(=O)c1ccccc1Cl | 99 to 101
O=C(O)c1nn(-c2cccc(Cl)c2)cc1O | 235 to 237
O=C(O)CSc1nc(-c2cccnc2)no1 | 154 to 156
COCCOc1nc(C(=O)O)cc2ccccc12 | 145 to 147
Cn1cc2c(=O)[nH][nH]c(=O)c2c1-c1ccc(N)cc1 | 349 to 351
NNC(=O)c1cc(-c2ccncc2)nc2ccccc12 | 226 to 228
O=C(O)c1n[nH]c2c1CCCC2 | 249 to 251
O=C(O)CC(C(=O)O)c1ccccc1F (stereo not given) | 169 to 171

SMILES | melting point [°C]
COc1ccccc1C(N)(C(=O)O)C(F)(F)F (stereo not given) | 97 to 99
O=C(O)CNc1ccc(Cl)cc1 | 142 to 144
Nc1nnc(-c2ccc(F)cc2F)o1 | 232 to 234
Cc1c(NCC(C)(C)C)cccc1C(=O)O | 135 to 137
O=C(O)c1cccc(Oc2ccc(Cl)c(Cl)c2)n1 | 138 to 140
O=C(CCl)N1CCC(c2nc3ccccc3s2)CC1 | 59 to 61
CNc1scnc1C(=O)O | 99 to 101
N#Cc1csc(C=O)c1 | 84 to 86
O=C1COc2cc([N+](=O)[O-])c(F)cc2N1 | 221 to 223
CCc1nc2ccccc2c(C(=O)O)c1C | 190 to 192
Cc1nc2ccccc2cc1C(=O)O | 243 to 245
CC(C)(C(=O)O)c1ccc(F)cc1 | 89 to 91
CC(C)Cn1cnc2c1c(=O)[nH]c(=O)n2Cc1ccccc1 | 179 to 181
O=C(O)c1c(Cl)nc2ccccc2c1Cl | 167 to 169
NC(=O)c1ccc(-c2nn[nH]n2)cc1 | 258 to 260
Cc1ccc(N2CCOC2=O)cc1N | 124 to 126
COc1cccc(-n2c(CC(=O)NN)csc2=NCc2ccco2)c1 | 151 to 153
O=C(O)c1cccc(N2CCOC2=O)c1 | 214 to 216
CC(C)(C)N1C(=O)CC(C(=O)O)C1c1ccc(Cl)c(F)c1 (stereo not given) | 249 to 251
COc1ccc(N2C(=O)C=CC2=O)cn1 | 122 to 124
O=C(O)c1ccc(-c2ncon2)cc1 | 214 to 216
Nc1nnc(CCCc2cccs2)o1 | 149 to 151
CCOC(=O)CNC(=O)OCC(F)(F)F | 38 to 40
COCCn1c(C)cc(C(=O)CCl)c1C | 87 to 91
NC(=O)C1CC2CCCCC2N1 (stereo not given) | 123 to 125

SMILES | melting point [°C]
CC(C)(C(=O)O)c1ccc2c(c1)OCCO2 | 125 to 127
CC(=O)CCc1ccc(OCC(=O)O)cc1 | 106 to 108
Oc1ccc(OCC(F)(F)F)cc1 | 60 to 62
O=C(O)C(=O)c1ccc(Br)cc1 | 105 to 107
COc1ccc(NC(=O)c2ccc(Br)cc2)c(C)c1 | 164 to 166
COC(=O)c1ccc(C)c(NC(=O)OCC(F)(F)F)c1 | 121 to 123
Nc1cc(C(F)(F)F)c[nH]c1=O | 96 to 98
Cc1ccc(C(C)C)cc1OCC(=O)O | 153 to 155
CC(=O)c1cc(Br)c(F)cc1O | 77 to 79
COc1ccc(S(=O)(=O)N2CCNCC2)cc1OC | 145 to 147
Cc1cc(C(=O)O)nn1C(C)(C)C | 143 to 145
O=C(O)c1ccc([N+](=O)[O-])cc1I | 139 to 141
O=C(O)c1csc(-c2ccc3c(c2)OCCO3)n1 | 199 to 201
Nc1ncccc1OCc1cccc(Cl)c1 | 84 to 86
CNC(=O)c1ccc(NC)c([N+](=O)[O-])c1 | 207 to 209
CCNc1nnc(S)s1 | 141 to 143
NN=c1ncc(F)c[nH]1 | 119 to 121
O=Cc1cc(-c2ccccc2)cs1 | 63 to 65
CCOc1ccc(S(=O)(=O)NN)cc1 | 114 to 116
O=C(O)c1ccc(CN2CCC(O)CC2)cc1 | 219 to 221
O=C(O)c1cc(Cl)c2ccccc2c1O | 228 to 230
O=Cc1cnn2ccccc12 | 82 to 84
O=C(Nc1nccs1)C1CCNCC1 | 196 to 198
O=C(O)c1cc(Br)c2occc2c1 | 239 to 241
O=C(O)c1cnco1 | 226 to 230

SMILES | melting point [°C]
CS(=O)(=O)c1ccc(C(N)=O)cc1 | 226 to 228
COC(=O)C(=O)CC(=O)c1cc(Cl)ccc1Cl | 150 to 152
C=CCOc1c(Br)cc(C=O)cc1OC | 52 to 53
CCNC(=O)Cn1ccc(N)n1 | 124 to 126
Cn1c(NCCO)nc2ccccc21 | 75 to 77
Cc1nn(-c2ccccc2)c(CCl)c1C#N | 130 to 132
CC(=O)Nc1ccc(Cl)cc1N | 141 to 143
CCc1nc(N)sc1C(=O)OC | 181 to 183
O=C(O)CCc1ncc(-c2ccco2)o1 | 140 to 142
Nc1c(C(=O)N2CCOCC2)oc2ccccc12 | 123 to 125
Cc1oc(C(N)=O)cc1-c1csc(N)n1 | 224 to 226
CCOC(=O)c1sc(/N=C/N(C)C)c(C#N)c1C | 151 to 153
Cc1nn2cc(CCCO)cnc2c1C | 108 to 110
O=C(NO)c1ccccc1C(F)(F)F | 157 to 159
Clc1nc(-c2cccc(Oc3ccccc3)c2)no1 | 50 to 52
Cc1cc(N)nn1-c1ccc(F)cc1 | 70 to 72
N#Cc1ccccc1NCc1ccco1 | 60 to 62
O=C(NCO)c1ccc(Cl)cc1 | 145 to 147
CC(C)COc1ccc(C2(C(=O)O)CCC2)cc1 | 105 to 107
Cc1ccc(Nc2nnc(S)s2)cc1C | 181 to 183
Cn1cc(S(=O)(=O)NCC(=O)O)cn1 | 201 to 203
COc1ccccc1C(NC(=O)OC(C)(C)C)C(=O)O (stereo not given) | 146 to 148
COc1cc2c(cc1OC)C(c1cccs1)NCC2 (stereo not given) | 112 to 115
Fc1ccccc1CNc1ccncc1 | 83 to 85
Cc1ccc(-c2nc(N)sc2C)s1 | 127 to 129

SMILES | melting point [°C]
O=C(O)C1CCN(c2ccc(S(=O)(=O)N3CCCCC3)cc2[N+](=O)[O-])CC1 | 241 to 243
Nc1ncc(-c2ccc(Br)cc2)[nH]1 | 194 to 196
Cc1[nH]c(-c2ccnc(Cl)c2)nc(=O)c1C | 253 to 255
CCCCn1ncc(C(=O)O)c1C | 77 to 79
COCc1nc2cc(N)ccc2o1 | 54 to 56
CCn1nc(C(=O)O)c(=O)c2ccccc21 | 210 to 212
CC(Br)c1cccc2ccccc12 (stereo not given) | 36 to 38
CS(=O)(=O)c1ccc(C2CNCCO2)cc1 (stereo not given) | 109 to 111
O=C1CCc2c(Br)cccc21 | 95 to 99
CCc1ccccc1OCC(=O)O | 123 to 127
CN(C1CC1)S(=O)(=O)c1ccc(N)cc1 | 131 to 133
OCc1ncc(-c2cccc(Cl)c2)o1 | 101 to 103
COc1cc(OC)c2c(Cl)ccnc2c1 | 92 to 94
Cc1nnc(N2CCCC2)c(C#N)c1C | 146 to 148
OC1CCNCc2ccccc21 (stereo not given) | 139 to 141
Cn1c(C2CC2)nc2cc(N)ccc21 | 99 to 101
CC(C)c1nnc(S)[nH]1 | 156 to 158
O=C(O)C=Cc1ccc(OCc2ccccc2)cc1 | 141 to 143
CCOC(=O)c1ccc(S)nc1 | 135 to 137
Cc1ccc(C(=O)Nc2cccc(CN)c2)cc1 | 131 to 133
O=C(O)c1cccnc1Oc1ccc(Cl)cc1Cl | 191 to 193
Cc1n[nH]c(-c2ccccc2I)n1 | 154 to 156
O=C(O)c1cnc(-c2ccccc2F)s1 | 187 to 189
COc1cc(OCC(=O)O)ccc1[N+](=O)[O-] | 195 to 197
O=C(O)c1ccccc1OCCOc1ccccc1 | 84 to 86

SMILES | melting point [°C]
Sc1cnnc2ccccc12 | 80 to 82
O=C(O)c1ccccc1C(=O)c1ccc(Cl)c(Cl)c1 | 187 to 189
COCC(=O)c1ccc(F)c(F)c1 | 39 to 41
CC(=O)c1ccc(Oc2ccc(Br)cc2)cc1 | 79 to 81
COc1cc(C=O)ccc1OCC(=O)N1CCOCC1 | 98 to 100
CC1(C)CN(CC(N)=NO)CCO1 | 75 to 77
COCCn1nnc(C(=O)O)c1C(F)(F)F | 55 to 57
COC(=O)c1sc2ncccc2c1N | 191 to 193
CC(NC(=O)CCl)C1CC2CCC1C2 (stereo not given) | 87 to 89
[N-]=[N+]=Nc1ccc(Br)cc1Cl | 60 to 62
CNc1ncccc1C(N)=O | 181 to 183
Cc1nc(-c2ccc(Cl)cc2)cs1 | 119 to 121
O=C1CC2CCCc3cccc1c32 (stereo not given) | 95 to 97
[N-]=[N+]=Nc1ccc(Cl)cc1C(F)(F)F | 32 to 34
NC(=NO)c1ccccc1Cl | 87 to 91
COc1ccccc1NC(=O)Cc1noc(CCl)n1 | 95 to 97
Nc1n[nH]c(C(=O)O)c1-c1ccccc1 | 269 to 271
CC(=O)Oc1ccc(CCl)cc1 | 29 to 31
OC1CCCOc2cc(Br)ccc21 (stereo not given) | 73 to 75
CCc1c(C(=O)O)cnn1C(C)(C)C | 133 to 135
